According to patent publication US5430023A, “Tripeptide antithrombotic agents” (Eli Lilly and Company, priority 1993, dated 1995):
Square brackets hold non-standard residues; d marks the D form. Peptide text beside a SMILES is read from it. * marks the point of attachment. dNMePhg = CN[C@@H](C(=O)O)c1ccccc1; dHpg = N[C@@H](C(=O)O)c1ccc(O)cc1; dChg = N[C@@H](C(=O)O)C1CCCCC1; dPhg = N[C@@H](C(=O)O)c1ccccc1; Boc = CC(C)(C)OC(=O)*

What was measured:
Type in all cases: biochemical
bovine thrombin [1] = biological target: T1, bovine thrombin (Bos taurus, UniProt P00735); experiment: Plasma coagulation assay: thrombin time
T1 construct: 25 μl of bovine thrombin solution (0.21 mg/ml of thrombostat powder); purchased thrombostat powder
Description: (§1) The anticoagulant activity of the compounds of the invention has been determined in standard tests. The following Table 2 presents the data obtained with representative compounds of the invention in tests used to determine prothrombin time, thrombin time and activated partial thromboplastin time (APTT). The numerical values in the table are the concentrations of the test compounds (ng/ml) required to prolong coagulation by 2-fold in the three tests. The thrombin time evaluation was carried out in plasma and separately determined in a buffer system at pH 7.5.
(§2) The data presented in Table 2 were obtained using a CoaScreener instrument from Tecan, Inc. in the assay protocols listed below.
50 μl bovine thrombin (2 NIH

bovine thrombin [2] = biological target: T1, bovine thrombin; experiment: Inhibition of thrombin amidase activity (chromogenic substrate), bovine thrombin; conditions: apparent equilibrium constant inhibitor-thrombin, mean over a range of concentrations
Description: The data in the table were obtained in an assay in which thrombin hydrolyzes the chromogenic substrate, N-benzoyl-D-phenylalanyl-L-valyl-L-arginyl-p-nitroanilide.
The assay was carried out in 50 μl buffer (0.03M Tris, 0.15M NaCl, pH 7.4) with 25 μl of bovine thrombin solution (0.21 mg/ml of thrombostat powder in 0.06M Tris, 0.3M NaCl, pH 7.4) and 150 μl of an aqueous solution of the chromogenic substrate at a concentration of 0.25 mg/ml. Solutions of test compound (25 μl) at various concentrations were added. […] Standard curves were constructed by plotting free thrombin concentration against hydrolysis rate. […] The amount of free inhibitor in each assay was calculated by subtracting the number of moles of bound thrombin from the number of moles of added inhibitor (test compound).
Kass was calculated for a range of concentrations of compounds and the mean value is reported in units of liter per mole.

bovine thrombin [3] = biological target: T1, bovine thrombin; experiment: Thrombin time in buffer (fibrinogen instead of plasma); conditions: Buffer (pH 7.5)
Description: as §1, §2
In the Thrombin Time determined in pH 7.4 buffer fibrinogen was used instead of plasma.

[4] = tested on: plasma coagulation (Actin, CaCl2); experiment: Plasma coagulation assay: APTT (activated partial thromboplastin time)
Description: as §1, §2

[5] = tested on: plasma coagulation (thromboplastin); experiment: Plasma coagulation assay: prothrombin time
Description: The numerical values in the table are the concentrations of the test compounds (ng/ml) required to prolong coagulation by 2-fold in the three tests. The thrombin time evaluation was carried out in plasma and separately determined in a buffer system at pH 7.5.
as §2
50 μl thromboplastin (Dade)

Row | Molecule | Thrombin Time: concentration required to prolong coagulation by 2fold (bovine thrombin [1]) [ng/mL] | Thrombin Amidase Kass × 10^6 (bovine thrombin [2]) | Thrombin Time: concentration required to prolong coagulation by 2fold (bovine thrombin [3]) [ng/mL] | APTT: concentration required to prolong coagulation by 2fold [4] [ng/mL] | Prothrombin Time: concentration required to prolong coagulation by 2fold [5] [ng/mL]
1 | CC[C@@H](C(=O)N1CCC[C@H]1C(=O)N[C@H](C=O)CCCNC(=N)N)c1ccccc1 [(R)-α-Ethylphenylacetyl] | 115 | 7 × 10^6 1/mole | – | – | –
2 | CO[C@@H](C(=O)N1CCC[C@H]1C(=O)N[C@H](C=O)CCCNC(=N)N)c1ccccc1 [(R)-α-Methoxyphenylacetyl] | 139 | 4 × 10^6 1/mole | 173 | > 909 | –
3 | COc1ccc([C@@H](NC(C)=O)C(=O)N2CCC[C@H]2C(=O)N[C@H](C=O)CCCNC(=N)N)cc1 [Acetyl-D-(4-methoxy)phenylglycyl] | 460 | 15 × 10^6 1/mole | – | 2600 | 900
4 | CC(=O)O.CC(=O)O.CC(C)(C)OC(=O)N[C@@H](C(=O)N1CCC[C@H]1C(=O)N[C@H](C=O)CCCNC(=N)N)c1ccc2ccccc2c1 [Boc-D-2-naphthylglycyl, N-Boc-D-2-naphthylglycyl-Pro-Arg-H diacetate] | 230 | 22 × 10^6 1/mole | 142 | 1200 | 1200
5 | CC(C)(C)OC(=O)NC(C(=O)N1CCCC1C(=O)NC(C=O)CCCN=C(N)N)c1cccs1 [Boc-D-2-thienylglycyl] | – | 14 × 10^6 1/mole | – | – | –
6 | CC(=O)O.CC(=O)O.CC(C)(C)OC(=O)N[C@@H](C(=O)N1CCC[C@H]1C(=O)N[C@H](C=O)CCCNC(=N)N)c1ccc(O)cc1 [Boc-D-(4-hydroxy)phenylglycyl, N-Boc-D-(4-hydroxyphenylglycyl)-Pro-Arg-H diacetate] (Boc-[dHpg]-Pro-Arg-aldehyde) | 182 | 115 × 10^6 1/mole | – | 1091 | 1636
7 | COc1ccc([C@@H](NC(=O)OC(C)(C)C)C(=O)N2CCC[C@H]2C(=O)N[C@H](C=O)CCCNC(=N)N)cc1 [Boc-D-(4-methoxy)phenylglycyl] | 80 | 75 × 10^6 1/mole | – | 640 | –
8 | COc1ccc2cc([C@@H](NC(=O)OC(C)(C)C)C(=O)N3CCC[C@H]3C(=O)N[C@H](C=O)CCCNC(=N)N)ccc2c1 [Boc-D-(6-methoxy)-2-naphthylglycyl] | 460 | 6 × 10^6 1/mole | 466 | 2239 | 35489
9 | CC(C)(C)OC(=O)NC(C(=O)N1CCCC1C(=O)NC(C=O)CCCN=C(N)N)c1ccc(F)cc1 [Boc-D-Phg(4-Fluoro)] | – | 44 × 10^6 1/mole | – | – | –
10 | CC(C)(C)OC(=O)N[C@@H](C(=O)N1CCC[C@H]1C(=O)N[C@H](C=O)CCCNC(=N)N)C1CCCCC1 [Boc-D-cyclohexylglycyl] (Boc-[dChg]-Pro-Arg-aldehyde) | 79 | 120 × 10^6 1/mole | 60 | 748 | 522
11 | CC(C)(C)OC(=O)NC(Cc1ccccc1)C(=O)N1CCCC1C(=O)NC(C=O)CCCN=C(N)N [Boc-D-phenylalanyl, reference compound] | – | 21 × 10^6 1/mole | – | – | –
12 | CC(C)(C)OC(=O)N[C@@H](C(=O)N1CCC[C@H]1C(=O)N[C@H](C=O)CCCNC(=N)N)c1ccccc1.CC(C)(C)OC(=O)N[C@@H](C(=O)N1CCC[C@H]1C(=O)N[C@H](C=O)CCCNC(=N)N)c1ccccc1.O=S(=O)(O)O [Boc-D-phenylglycyl (sulfate salt), N-Boc-D-Phenylglycyl-L-Prolyl-L-Arginine aldehyde (Boc-D-Phg-Pro-Arg-H) hemisulfate] (Boc-[dPhg]-Pro-Arg-aldehyde) | – | 107 × 10^6 1/mole | – | – | –
13 | N=C(N)NCCC[C@@H](C=O)NC(=O)[C@@H]1CCCN1C(=O)[C@H]1CC2CCCCC2CN1.O=S(=O)(O)O (stereo partly drawn) [D-1,2,3,4,6,7,8-Perhydroisoquinolin-3-carbonyl-L-prolyl-L-arginal (sulfate)] | – | 25 × 10^6 1/mole | – | – | –
14 | N=C(N)NCCC[C@@H](C=O)NC(=O)[C@@H]1CCCN1C(=O)[C@@H]1NCCc2ccccc21.O=S(=O)(O)O [D-1,2,3,4-Tetrahydroisoquinolin-1-carbonyl-L-Prolyl-L-Arginine Aldehyde Sulfate] | – | 113 × 10^6 1/mole | – | – | –
15 | Cl.N=C(N)NCCC[C@@H](C=O)NC(=O)[C@@H]1CCCN1C(=O)[C@H]1Cc2ccccc2C(=O)N1 [D-1,2,3,4-tetrahydroisoquinolin-1-keto-3-carbonyl-L-prolyl-L-arginine aldehyde (hydrochloride)] | – | 6 × 10^6 1/mole | – | – | –
16 | N=C(N)NCCC[C@@H](C=O)NC(=O)[C@@H]1CCCN1C(=O)[C@H](N)c1ccccc1 [D-Phenylglycyl] (H-[dPhg]-Pro-Arg-aldehyde) | 91 | 75 × 10^6 1/mole | – | – | –
17 | CN[C@@H](C(=O)N1CCC[C@H]1C(=O)N[C@H](C=O)CCCNC(=N)N)c1ccccc1 [N^α -Methyl-D-phenylglycyl (sulfate), N-methyl-D-phenylglycyl-L-prolyl-L-arginine aldehyde] (H-[dNMePhg]-Pro-Arg-aldehyde) | 92 | 80 × 10^6 1/mole | 67 | > 909 | 899
18 | N^α -acetyl-1-aminocyclohexane-1-carbonyl-L-prolyl-L-arginine Aldehyde (Hydrochloride) | – | 0.2 × 10^6 1/mole | – | – | –
19 | N^α -ethylcarbamate-1-amino-1-cyclohexane-carbonyl-L-prolyl-L-arginine Aldehyde (Hydrochloride) | – | 1.5 × 10^6 1/mole | – | – | –
